# Experimental data taken from article PMC11989005, “The Elongation Factor 1 Alpha Promoter Drives the Functional Expression of Kir2A in Plutella xylostella Cells” (International Journal of Molecular Sciences, 2025).
# pIC50: −log10 of the molar value. Like-named read-outs stand apart in the source and are kept apart here.
# Molecular target: T1, PxKir2A (Plutella xylostella, UniProt A0A7L7TNR0)
# T1 construct: gene kir2; full-length ORF in pEF1alpha-PxKir2A, no tag stated; transiently expressed in P. xylostella Px4-2 cells, EGFP co-transfected from a separate plasmid
# Assay: whole-cell patch clamp, inhibition of inward K+ current
# Format: cell-based
# T1 sequence (A0A7L7TNR0 entry or part of it): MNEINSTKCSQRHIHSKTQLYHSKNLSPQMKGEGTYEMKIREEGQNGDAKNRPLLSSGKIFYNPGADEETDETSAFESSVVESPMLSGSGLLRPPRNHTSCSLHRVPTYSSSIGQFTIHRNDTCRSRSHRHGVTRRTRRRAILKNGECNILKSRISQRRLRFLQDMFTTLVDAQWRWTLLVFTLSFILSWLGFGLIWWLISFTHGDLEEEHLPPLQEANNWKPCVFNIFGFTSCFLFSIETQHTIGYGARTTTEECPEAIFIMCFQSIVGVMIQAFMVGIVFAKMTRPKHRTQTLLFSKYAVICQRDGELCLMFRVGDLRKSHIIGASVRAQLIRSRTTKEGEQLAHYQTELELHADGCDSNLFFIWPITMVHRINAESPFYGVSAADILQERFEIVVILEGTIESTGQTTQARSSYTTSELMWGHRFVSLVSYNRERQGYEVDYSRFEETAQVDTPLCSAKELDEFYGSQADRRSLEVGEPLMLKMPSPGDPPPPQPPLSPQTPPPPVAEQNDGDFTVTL
"pIC50 (bath 50 mM KCl, pH 6.4, 25 °C, holding -20 mV, steps -120 to +20 mV, DMSO <0.05%, read-out: IC50)",SMILES,pIC50
,O=[N+]([O-])c1ccc(CN2CCOCCOCCN(Cc3ccc([N+](=O)[O-])cc3)CCOCC2)cc1 [VU590],6.20
6.82,CCC(=O)N1c2ccc(S(=O)(=O)Nc3cccc(OC)c3)cc2CC1C (centres unmarked) [VU625],
